Legend:
CDK9 = molecular target: T1, CDK9 (Homo sapiens, UniProt P50750); test: CDK protein degradation activity (Western blotting), CDK9; assay type: cell-based; conditions: MDA-MB-231 cells, 16 hours, Western blot
T1 construct: endogenous in cells; host or cells: MDA-MB-231
Outline: (§1)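 MDA-MB-231 cells treated 16 h with compound at 100 nM, 1 μM or 10 μM, with DMSO as control. Lysates run on SDS-PAGE and immunoblotted for CDK2, CDK9 and tubulin; band levels quantified by densitometry.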

CDK2 = molecular target: T2, CDK2 (Homo sapiens, UniProt P24941); test: CDK protein degradation activity (Western blotting), CDK2; assay type: cell-based; conditions: MDA-MB-231 cells, 16 hours, Western blot
T2 construct: endogenous in cells; host or cells: MDA-MB-231
Outline: as §1

T1 sequence (P50750 whole entry): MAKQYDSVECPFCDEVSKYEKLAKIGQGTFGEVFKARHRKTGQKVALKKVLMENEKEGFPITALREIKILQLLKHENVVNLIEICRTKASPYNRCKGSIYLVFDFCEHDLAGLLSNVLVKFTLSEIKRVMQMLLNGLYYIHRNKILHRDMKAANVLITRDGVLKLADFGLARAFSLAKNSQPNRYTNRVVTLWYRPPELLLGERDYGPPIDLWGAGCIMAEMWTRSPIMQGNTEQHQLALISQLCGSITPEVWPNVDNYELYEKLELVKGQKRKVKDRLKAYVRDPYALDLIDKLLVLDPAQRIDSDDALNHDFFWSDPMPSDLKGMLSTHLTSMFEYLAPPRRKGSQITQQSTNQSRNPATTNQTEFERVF

Compound	Enzyme degradation CDK9 (% remaining) @ 0.1 μM (CDK9)	Enzyme degradation CDK9 (% remaining) @ 1 μM (CDK9)	Enzyme degradation CDK9 (% remaining) @ 10 μM (CDK9)	Enzyme degradation CDK2 (% remaining) @ 0.1 μM (CDK2)	Enzyme degradation CDK2 (% remaining) @ 1 μM (CDK2)	Enzyme degradation CDK2 (% remaining) @ 10 μM (CDK2)
2,6-dichloro-N-((1s,3s)-3-(6-((4-(4-((4-(1-(2-(2,6-dioxopiperidin-3-yl)-1,3-dioxoisoindolin-5-yl)azetidin-3-carbonyl)piperazin-1-yl)methyl)piperidin-1-yl)phenyl)amino)-9H-purin-9-yl)cyclobutyl)benzamide [Compound 473]	10/10/10%	10/10/10%	10/10/10%	20/20/20%	20/20/20%	20/20/20%
O=C1CC[C@@H](c2ccc(OCC(=O)N3CCN(CCCN4CCN(c5ccc(Nc6ncnc7c6ncn7C6CC(NC(=O)Cc7ccccc7)C6)cc5)CC4)CC3)cc2)C(=O)N1 (stereo partly drawn) [Compound 236, N-((1s,3s)-3-(6-((4-(4-(3-(4-(2-(4-(2,6-dioxopiperidin-3-yl)phenoxy)acetyl)piperazin-1-yl)propyl)piperazin-1-yl)phenyl)amino)-9H-purin-9-yl)cyclobutyl)-2-phenylacetamide]	20%	0%	0%	50/50/50%	50/50/50%	50/50/50%
O=C1CC[C@H](n2nnc3ccc(N4CCN(CC5CCN(c6ccc(Nc7ncnc8c7ncn8C7CC(NC(=O)Cc8ccccc8)C7)cc6)CC5)CC4)cc3c2=O)C(=O)N1 (stereo partly drawn) [Compound 320, N-((1s,3s)-3-(6-((4-(4-((4-(3-(2,6-dioxopiperidin-3-yl)-4-oxo-3,4-dihydrobenzo[d][1,2,3]triazin-6-yl)piperazin-1-yl)methyl)piperidin-1-yl)phenyl)amino)-9H-purin-9-yl)cyclobutyl)-2-phenylacetamide]	80%	10%	10%	20%	0%	0%
O=C1CCC(N2C(=O)c3ccc(N4CCC(C(=O)N5CCN(CC6CCN(c7ccc(Nc8ncnc9c8ncn9[C@H]8C[C@@H](NC(=O)c9c(Cl)cccc9Cl)C8)cc7)CC6)CC5)CC4)cc3C2=O)C(=O)N1 (stereo partly drawn) [Compound 474, 2,6-dichloro-N-((1s,3s)-3-(6-((4-(4-((4-(1-(2-(2,6-dioxopiperidin-3-yl)-1,3-dioxoisoindolin-5-yl)piperidin-4-carbonyl)piperazin-1-yl)methyl)piperidin-1-yl)phenyl)amino)-9H-purin-9-yl)cyclobutyl)benzamide]	10%	0%	0%	20%	30%	30%
Cc1cccc(C(=O)NC2CC(n3cnc4c(NCc5ccc(N6CCN(C(=O)CNc7cccc8c7C(=O)N([C@H]7CCC(=O)NC7=O)C8=O)CC6)cc5)ncnc43)C2)n1 (stereo partly drawn) [Compound 148, N-((1s,3s)-3-(6-((4-(4-((2-(2,6-dioxopiperidin-3-yl)-1,3-dioxoisoindolin-4-yl)glycyl)piperazin-1-yl)benzyl)amino)-9H-purin-9-yl)cyclobutyl)-6-methylpicolinamide]	10%	0%	0%	40%	50%	60%
O=C1CC[C@H](N2C(=O)c3ccc(N4CC(C(=O)N5CCN(CCC6CCN(c7ccc(Nc8ncnc9c8ncn9[C@H]8C[C@@H](NC(=O)Cc9ccccc9)C8)cc7)CC6)CC5)C4)cc3C2=O)C(=O)N1 [Compound 362, N-((1s,3s)-3-(6-((4-(4-(2-(4-(1-(2-(2,6-dioxopiperidin-3-yl)-1,3-dioxoisoindolin-5-yl)azetidin-3-carbonyl)piperazin-1-yl)ethyl)piperidin-1-yl)phenyl)amino)-9H-purin-9-yl)cyclobutyl)-2-phenylacetamide]	40%	0%	0%	90%	80%	70%

From US20260125382A1, “COMPOUNDS FOR INHIBITING OR DEGRADING CDK2 AND/OR CDK9 AND MEDICINAL USE THEREOF” (KOREA RESEARCH INSTITUTE OF CHEMICAL TECHNOLOGY, priority 2022, published 2026)
